Experimental findings from PubChem BioAssay AID248 (DTP/NCI, 2004) are described below.

SMILES strings stand for the structures. Inconclusive results and toxic doses are left out.

This experiment deals with L1210 leukemia ip in BDF1 mice, survival T/C. As to the kind of experiment: NCI In Vivo Anticancer Drug Screen. Data for tumor model L1210 Leukemia (intraperitoneal) in B6D2F1 (BDF1) mice. To be noted: endpoint: mean survival time, higher = longer survival. An outline of the steps: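 Tumor cells were implanted, animals were treated, and survival was followed. The result divides the treated measurement by the vehicle-control measurement.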

The mark [1] stands for this setting: dose: 100.0 mg/kg/injection, schedule: Q01DX009 (ip), vehicle: saline.
The mark [2] stands for this setting: dose: 100.0 mg/kg/injection, schedule: Q04DX003 (ip), vehicle: saline.
[3] abbreviates: dose: 200.0 mg/kg/injection, schedule: Q01DX009 (ip), vehicle: saline.
Where [4] appears, read: dose: 200.0 mg/kg/injection, schedule: Q04DX003 (ip), vehicle: saline.
Where [5] appears, read: dose: 400.0 mg/kg/injection, schedule: Q01DX009 (ip), vehicle: saline.
Where [6] appears, read: dose: 400.0 mg/kg/injection, schedule: Q04DX003 (ip), vehicle: saline.
The mark [7] stands for this setting: dose: 75.0 mg/kg/injection, schedule: Q01DX001 (ip), vehicle: other.
Where [8] appears, read: dose: 150.0 mg/kg/injection, schedule: Q01DX001 (ip), vehicle: other.
Where [9] appears, read: dose: 100.0 mg/kg/injection, schedule: Q01DX009 (ip), vehicle: saline with Tween-80.
Setting [10] is: dose: 200.0 mg/kg/injection, schedule: Q01DX009 (ip), vehicle: saline with Tween-80.
Where [11] appears, read: dose: 400.0 mg/kg/injection, schedule: Q01DX009 (ip), vehicle: saline with Tween-80.
[12] abbreviates: dose: 100.0 mg/kg/injection, schedule: Q04DX003 (ip), vehicle: Klucel (hydroxypropylcellulose) (HPC).
The mark [13] stands for this setting: dose: 200.0 mg/kg/injection, schedule: Q04DX003 (ip), vehicle: Klucel (hydroxypropylcellulose) (HPC).
[14] abbreviates: dose: 400.0 mg/kg/injection, schedule: Q04DX003 (ip), vehicle: Klucel (hydroxypropylcellulose) (HPC).

Consider `CC(C)=C1C2C=CC1C(C(=O)N(C)C)C2C(=O)N(C)C` (stereo not drawn), for which the T/C runs as follows: under setting [1], 96 % of control; under setting [2], 113 % of control; under setting [3], 98 % of control; under setting [4], 108 % of control; under setting [5], 104 % of control; under setting [6], 100 % of control.

Consider `Cc1ccc(S(=O)(=O)Nc2cc(C)cc(CCN)c2C)cc1`, for which the T/C was 98 % of control (dose: 50.0 mg/kg/injection, schedule: Q01DX001 (ip), vehicle: carboxymethylcellulose (CMC)); 101 % of control (dose: 100.0 mg/kg/injection, schedule: Q01DX001 (ip), vehicle: carboxymethylcellulose (CMC)); 98 % of control (dose: 200.0 mg/kg/injection, schedule: Q01DX001 (ip), vehicle: carboxymethylcellulose (CMC)); 93 % of control (dose: 400.0 mg/kg/injection, schedule: Q01DX001 (ip), vehicle: carboxymethylcellulose (CMC)).

In the case of `CCc1c(C)nc2[nH]ncn2c1=O`, the T/C by setting is: under setting [7], 96 % of control; under setting [8], 97 % of control; (dose: 300.0 mg/kg/injection, schedule: Q01DX001 (ip), vehicle: other) 93 % of control.

`O=NN(CCF)C(=O)Nc1c[nH]c(=O)[nH]c1=O`: the T/C (dose: 20.0 mg/kg/injection, schedule: Q01DX001 (ip), vehicle: carboxymethylcellulose (CMC)) was 178 % of control.

Turning to `C1CCC2(CC1)CCCCC2`, the T/C by setting is: (dose: 5.0 mg/kg/injection, schedule: Q01DX001 (ip), vehicle: saline) 97 % of control; (dose: 10.0 mg/kg/injection, schedule: Q01DX001 (ip), vehicle: saline) 103 % of control; (dose: 20.0 mg/kg/injection, schedule: Q01DX001 (ip), vehicle: saline) 93 % of control; (dose: 40.0 mg/kg/injection, schedule: Q01DX001 (ip), vehicle: saline) 97 % of control; (dose: 80.0 mg/kg/injection, schedule: Q01DX001 (ip), vehicle: saline) 100 % of control.

For `CCOC(=O)C(CC)(OC(C)=O)C(=O)C(O)C1c2nc3ccccc3cc2CN1C(=O)CCOCc1ccccc1` (stereo not drawn), the T/C is, setting by setting: (dose: 10.0 mg/kg/injection, schedule: Q07DX002 (ip), vehicle: alcohol) 99 % of control; (dose: 20.0 mg/kg/injection, schedule: Q07DX002 (ip), vehicle: alcohol) 101 % of control; (dose: 40.0 mg/kg/injection, schedule: Q07DX002 (ip), vehicle: alcohol) 106 % of control; (dose: 80.0 mg/kg/injection, schedule: Q07DX002 (ip), vehicle: alcohol) 94 % of control.

On to `O=C(O)C1CO1` (stereo not drawn), for which the T/C is 102 % of control (dose: 100.0 mg/kg/injection, schedule: Q01DX001 (ip), vehicle: acetone); 98 % of control (dose: 200.0 mg/kg/injection, schedule: Q01DX001 (ip), vehicle: acetone); 101 % of control (dose: 400.0 mg/kg/injection, schedule: Q01DX001 (ip), vehicle: acetone).

In the case of `CCCCCCCC/C=C\CCCCCCCC(=O)OCCSCCOC(C)=O`, the T/C was 97 % of control under setting [9]; 89 % of control (dose: 100.0 mg/kg/injection, schedule: Q04DX003 (ip), vehicle: saline with Tween-80); 102 % of control under setting [10]; 92 % of control (dose: 200.0 mg/kg/injection, schedule: Q04DX003 (ip), vehicle: saline with Tween-80); 102 % of control under setting [11]; 94 % of control (dose: 400.0 mg/kg/injection, schedule: Q04DX003 (ip), vehicle: saline with Tween-80).

As to `CCCC#CCCCN1CCC2(CC1)C(=O)NCN2c1ccccc1`, the T/C (dose: 20.0 mg/kg/injection, schedule: Q04DX003 (ip), vehicle: Klucel (hydroxypropylcellulose) (HPC)) is 103 % of control; the T/C (dose: 40.0 mg/kg/injection, schedule: Q04DX003 (ip), vehicle: Klucel (hydroxypropylcellulose) (HPC)) is 103 % of control; the T/C (dose: 80.0 mg/kg/injection, schedule: Q04DX003 (ip), vehicle: Klucel (hydroxypropylcellulose) (HPC)) is 91 % of control; the T/C under setting [12] is 93 % of control.

As for `C1=C[P+](c2ccccc2)(c2ccccc2)CC[P+]1(c1ccccc1)c1ccccc1`, the T/C by setting is: under setting [7], 98 % of control; under setting [8], 95 % of control.

With `OC1CCCCC1c1ccccc1` (stereo not drawn), the T/C was 87 % of control (dose: 50.0 mg/kg/injection, schedule: Q01DX009 (ip), vehicle: saline with Tween-80); 87 % of control under setting [9]; 97 % of control under setting [10].

For `CN(C)/N=C\c1cccc2ccccc12`, the T/C (dose: 100.0 mg/kg/injection, schedule: Q04DX002 (ip), vehicle: saline with Tween-80) was 96 % of control; the T/C (dose: 200.0 mg/kg/injection, schedule: Q04DX002 (ip), vehicle: saline with Tween-80) was 92 % of control; the T/C (dose: 400.0 mg/kg/injection, schedule: Q04DX002 (ip), vehicle: saline with Tween-80) is 92 % of control.

Regarding `CCN(CC)CCSc1ccnc2cc(Cl)ccc12`, the T/C reads like this: under setting [2], 94 % of control; under setting [4], 96 % of control; under setting [6], 100 % of control.

`O=C(Nc1cc([N+](=O)[O-])ccc1Cl)SCc1ccccc1`: the T/C is 102 % of control under setting [9], 98 % of control under setting [10] and 102 % of control under setting [11].

As to `O=C(Cn1cnc2c(=S)nc[nH]c21)Oc1ccc([N+](=O)[O-])cc1`, the T/C reads like this: under setting [9], 98 % of control; under setting [12], 96 % of control; under setting [13], 105 % of control; under setting [14], 94 % of control.

Take `O=C(/C=C/c1ccco1)c1cccc([N+](=O)[O-])c1`: the T/C is 97 % of control (dose: 100.0 mg/kg/injection, schedule: Q01DX001 (ip), vehicle: saline with Tween-80); 95 % of control (dose: 200.0 mg/kg/injection, schedule: Q01DX001 (ip), vehicle: saline with Tween-80); 92 % of control (dose: 400.0 mg/kg/injection, schedule: Q01DX001 (ip), vehicle: saline with Tween-80).

Take `O=C(c1ccccc1)N1CCC(CCO)C(O)C1Cc1c[nH]c2ccccc12` (stereo not drawn): the T/C under setting [1] is 96 % of control; the T/C under setting [2] is 100 % of control; the T/C under setting [3] is 93 % of control; the T/C under setting [4] was 94 % of control; the T/C under setting [5] was 98 % of control; the T/C under setting [6] is 92 % of control.

As for `CC(=O)c1cc2c(Br)cccc2oc1=O`, the T/C was 91 % of control (dose: 100.0 mg/kg/injection, schedule: Q01DX001 (ip), vehicle: saline); 98 % of control (dose: 200.0 mg/kg/injection, schedule: Q01DX001 (ip), vehicle: saline); 95 % of control (dose: 400.0 mg/kg/injection, schedule: Q01DX001 (ip), vehicle: saline).

For the molecule `Cc1ccc(N)cc1CO`, the T/C is 94 % of control (dose: 100.0 mg/kg/injection, schedule: Q01DX001 (ip), vehicle: Klucel (hydroxypropylcellulose) (HPC)); 94 % of control under setting [12]; 92 % of control (dose: 200.0 mg/kg/injection, schedule: Q01DX001 (ip), vehicle: Klucel (hydroxypropylcellulose) (HPC)); 103 % of control under setting [13]; 100 % of control (dose: 400.0 mg/kg/injection, schedule: Q01DX001 (ip), vehicle: Klucel (hydroxypropylcellulose) (HPC)); 94 % of control under setting [14].

Regarding `COc1ccc([N+](=O)[O-])cc1NC(=O)COc1cc(Cl)c(Cl)cc1Cl`, the T/C runs as follows: (dose: 100.0 mg/kg/injection, schedule: Q01DX009 (ip), vehicle: Klucel (hydroxypropylcellulose) (HPC)) 94 % of control; (dose: 200.0 mg/kg/injection, schedule: Q01DX009 (ip), vehicle: Klucel (hydroxypropylcellulose) (HPC)) 108 % of control; (dose: 400.0 mg/kg/injection, schedule: Q01DX009 (ip), vehicle: Klucel (hydroxypropylcellulose) (HPC)) 94 % of control.

As to `COc1ccc2nc(C)oc2c1`, the T/C (dose: 100.0 mg/kg/injection, schedule: Q04DX003 (ip), vehicle: acetone) was 97 % of control; the T/C (dose: 200.0 mg/kg/injection, schedule: Q04DX003 (ip), vehicle: acetone) was 95 % of control; the T/C (dose: 400.0 mg/kg/injection, schedule: Q04DX003 (ip), vehicle: acetone) was 97 % of control.
